Test results from US20240425478A1, “CYCLOPENTYLPYRAZOLE CDK2 INHIBITORS” (Genentech, Inc., priority 2021, published 2024).
Like-named read-outs stand apart in the source and are kept apart here.

Legend:
[1] = tested on: OVISE (JCRB1043, CCNE1-amplified); test: OVISE EdU incorporation cell proliferation assay (CDK2-dependent); assay type: cell-based; settings: for IC50: cellular assay, read-out: CDK2 OVISE IC50; for FS SKOV-3/OVISE / FS p-H3/OVISE: fold selectivity; for FS p-H3/OVISE: cellular p-H3 IC50 over OVISE IC50
Procedure, shortened: (§1)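 EdU incorporation (0.5 μM final, last 8 h) follows a 16 h compound exposure at 37 °C, 5% CO2 in RPMI plus 10% FBS, 0.5% DMSO. After fixation, imaging scores EdU-positive cells; a 4-parameter logistic fit of that fraction gives IC50.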

[2] = biological target: T1, Cyclin Dependent Kinase 1/Cyclin A2 (CDK1-cycA2) (Homo sapiens, UniProt P06493); test: CDK1-cycA2 TR-FRET (Lance) enzyme assay; assay type: biochemical; settings: Table O, enzymatic assay
T1 construct: purchased ProQinase 0134-0054-1
T1 sequence (P06493 whole entry): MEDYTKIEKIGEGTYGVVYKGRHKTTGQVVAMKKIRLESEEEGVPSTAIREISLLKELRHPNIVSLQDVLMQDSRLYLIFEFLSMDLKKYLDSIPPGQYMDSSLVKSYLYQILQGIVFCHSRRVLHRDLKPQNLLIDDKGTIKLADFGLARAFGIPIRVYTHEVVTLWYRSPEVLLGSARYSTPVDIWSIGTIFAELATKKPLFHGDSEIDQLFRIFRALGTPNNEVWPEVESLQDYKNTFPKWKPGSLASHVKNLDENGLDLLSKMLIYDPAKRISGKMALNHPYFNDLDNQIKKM
T1 sequence (P20248 whole entry partner): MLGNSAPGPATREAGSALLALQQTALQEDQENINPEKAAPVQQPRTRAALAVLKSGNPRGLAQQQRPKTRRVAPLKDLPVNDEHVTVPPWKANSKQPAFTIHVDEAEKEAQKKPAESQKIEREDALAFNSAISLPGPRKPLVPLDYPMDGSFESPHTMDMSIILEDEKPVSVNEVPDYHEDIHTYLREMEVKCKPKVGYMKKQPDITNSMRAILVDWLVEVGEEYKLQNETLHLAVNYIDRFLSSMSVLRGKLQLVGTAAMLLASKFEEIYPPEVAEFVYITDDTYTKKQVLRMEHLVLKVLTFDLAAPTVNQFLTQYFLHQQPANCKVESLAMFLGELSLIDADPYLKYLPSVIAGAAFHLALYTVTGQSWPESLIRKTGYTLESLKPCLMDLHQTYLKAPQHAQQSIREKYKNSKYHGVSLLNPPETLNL
Procedure, shortened: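 TR-FRET (Lance) detection of phospho-4E-BP1 with a europium-labelled antibody after EDTA quench (15 mM final); signal taken as acceptor/donor ratio. Enzyme and compound were pre-incubated 30 min in HEPES pH 7.5 buffer with MgCl2, TCEP, BGG and Brij 35. Ki derived by Morrison fit.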

HCT116 cells = test: p-H3 HCT-116 mitotic release cell proliferation assay (cellular CDK1); assay type: cell-based; settings: Homo sapiens, HCT-116; Table O, cellular assay; read-out: CDK1 p-H3 IC50
Experimental: Inhibition of cellular CDK1 determined by release of cells from nocodazole-induced mitotic arrest, as measured by decrease in phospho-Histone H3. Histone H3 (Ser 10) level is detected in cell lysates by producing a Fluorescence Resonance Energy Transfer (FRET) signal between two antibodies, Phospho-Histone H3 Cryptate (acting as the donor) and Phospho-Histone H3 d2 (acting as the acceptor).
Plates are allowed to rest overnight at 37° C./5% CO2. The following morning, nocodazole is diluted in complete medium, and 5 μL is added to each test well and positive control well for a final concentration of 500 nM. Plates are then incubated for 16 hours at 37° C./5% CO2. […] 10 μL of diluted compound is then transferred to the cell plate (final DMSO concentration 0.1%). Cell plates are then incubated for 4 hours in 37° C. 5% CO2. A cell lysis buffer is prepared on ice using reagents from the Phospho-Histone H3 (Ser10) cellular kit (Cisbio-64HH3PEG). Supernatant is discarded from the cell plate and 80 μL of the supplemented cell lysis buffer (1:99 dilution of the Blocking Reagent and the 1× cell lysis buffer provided in the kit) is added to each of the experimental wells. The cell lysis reaction is allowed to proceed at room temperature while shaking vigorously for 30 minutes. The 384-well HTRF (Homogeneous Time Resolved Fluorescence) plate is prepared by adding 2 μL of each diluted antibody (Phospho-Histone H3 Cryptate antibody and Phospho-Histone H3 d2 antibody diluted 19:1 in a detection buffer) and 12 μL of the supplemented cell lysis buffer to each well in the HTRF plate. 4 μL of the cell lysate is added to the prepared HTRF plate which is then sealed and the reaction is allowed to proceed for a minimum of 2 hours at room temperature.

[3] = biological target: T2, Cyclin Dependent Kinase 4/Cyclin D3 (CDK4-cycD3) (Homo sapiens, UniProt P11802); test: CDK4-cycD3 TR-FRET (LANCE) enzyme assay; assay type: biochemical; settings: Table O, enzymatic assay
T2 construct: purchased Carna Biosciences 04-105
T2 sequence (P11802 whole entry): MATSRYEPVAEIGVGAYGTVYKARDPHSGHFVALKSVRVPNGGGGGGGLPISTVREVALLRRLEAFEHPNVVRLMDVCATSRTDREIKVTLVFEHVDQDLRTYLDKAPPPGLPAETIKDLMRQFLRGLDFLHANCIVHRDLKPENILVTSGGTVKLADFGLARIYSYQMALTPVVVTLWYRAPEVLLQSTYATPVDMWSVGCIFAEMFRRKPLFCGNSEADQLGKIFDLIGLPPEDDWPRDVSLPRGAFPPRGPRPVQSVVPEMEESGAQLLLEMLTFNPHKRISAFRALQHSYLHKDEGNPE
T2 sequence (P30281 whole entry partner): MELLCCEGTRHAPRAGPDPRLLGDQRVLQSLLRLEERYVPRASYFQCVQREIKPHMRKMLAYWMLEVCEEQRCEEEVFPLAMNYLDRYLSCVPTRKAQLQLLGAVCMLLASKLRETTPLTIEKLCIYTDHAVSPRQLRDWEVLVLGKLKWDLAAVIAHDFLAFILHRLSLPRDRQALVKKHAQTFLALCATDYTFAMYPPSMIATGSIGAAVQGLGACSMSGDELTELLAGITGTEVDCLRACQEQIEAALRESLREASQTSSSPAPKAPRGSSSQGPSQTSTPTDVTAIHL
Procedure, shortened: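 Compound dose responses pre-incubated 30 min with enzyme mix in 50 mM HEPES pH 7.5, 10 mM MgCl2, 2 mM TCEP, 0.05% BGG, 0.01% Brij 35. Reaction quenched with EDTA (15 mM final); Eu-anti-phospho-4E-BP1 TR-FRET detection, acceptor/donor ratio. Ki derived by Morrison equation.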

[4] = biological target: T3, Cyclin Dependent Kinase 2/Cyclin E1 (CDK2-cycE1) (Homo sapiens, UniProt P24941); test: CDK2-cycE1 TR-FRET (LANCE) enzyme assay; assay type: biochemical; settings: for Ki: enzymatic assay, read-out: CDK2 Ki; for FS CDK1/CDK2 / FS CDK4/CDK2: fold selectivity;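 on improvement in potency against CDK2 (Ki) over Comparator C: fold lower CDK2 Ki than comparator c (Ki 0.032 µM)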
T3 construct: purchased ProQinase 0050-0055-1
Procedure, shortened: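 Kinase reaction buffer: 50 mM HEPES pH 7.5, 10 mM MgCl2, 2 mM TCEP, 0.05% BGG, 0.01% Brij 35, with 30 min compound–enzyme pre-incubation.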

SKOV-3 (ATCC HTB-77) = test: SKOV-3 EdU incorporation cell proliferation assay (CDK4/6-dependent); assay type: cell-based; settings: Homo sapiens, cellular assay, read-out: CDK4/6 SKOV-3 IC50
Procedure, shortened: as §1

[5] = Table O, cellular SKOV-3 IC50 over OVISE IC50
[6] = Table O, enzymatic CDK1 Ki over CDK2 Ki
[7] = Table O, enzymatic CDK4 Ki over CDK2 Ki

| SMILES | IC50 ([1]; Table O) | FS SKOV-3/OVISE [1, 5] | FS p-H3/OVISE ([1]; Table O) | Ki [2] | IC50 (HCT116 cells) | Ki [3] | Ki ([4]; Table O) | FS CDK1/CDK2 [4, 6] | FS CDK4/CDK2 [4, 7] | IC50 (SKOV-3 (ATCC HTB-77); SK-OV-3, Table O) | increased fold-selectivity SKOV-3/OVISE over Comparator C ([1]; Table Q, (+) sign after FS SKOV-3/OVISE) | FS SKOV-3/OVISE ([1]; Table Q, cellular) | improvement in CDK2 OVISE cell potency over Comparator C ([1]; Table Q, in brackets after OVISE IC50, Comparator C 5.5 μM) | improvement in potency against CDK2 (Ki) over Comparator C [4] | increased fold-selectivity CDK4/CDK2 over Comparator C ([4]; Table Q, (+) sign after FS CDK4/CDK2) | Ki ([4]; Table Q) | FS CDK1/CDK2 ([4]; Table Q, enzymatic) | FS CDK4/CDK2 ([4]; Table Q, enzymatic) | IC50 (SKOV-3 (ATCC HTB-77); SK-OV-3, Table Q) |
| --- | --- | --- | --- | --- | --- | --- | --- | --- | --- | --- | --- | --- | --- | --- | --- | --- | --- | --- | --- |
| Cc1nnccc1Nc1cc([C@H]2CC[C@@H](OC(=O)NC(C)(C)C)C2)[nH]n1 [Example 11A, (1R,3S)-3-(3-((3-methylpyridazin-4-yl)amino)-1H-pyrazol-5-yl)cyclopentyl tert-butylcarbamate] | 120 nM | 100 | 1.9 | 83 nM | 230 nM | 280 nM | 0.63 nM | 132 | 444 | 12000 nM |  |  |  |  |  |  |  |  |  |
| COc1cncc(Nc2cc([C@H]3CC[C@@H](OC(=O)NC(C)C)C3)[nH]n2)n1 [Example 2N, (1R,3S)-3-(3-((6-methoxypyrazin-2-yl)amino)-1H-pyrazol-5-yl)cyclopenty1 isopropylcarbamate] | 29 nM | 41 | 0.38 | 3.7 nM | 11 nM | 26 nM | 0.49 nM | 7.6 | 53 | 1200 nM | (+) (The (+) sign in Table Q signifies desirable increased fold-selectivity of the exemplary compounds over Comparator C) | 41 | 190 fold | 65 fold | (+) (The (+) sign in Table Q signifies desirable increased fold-selectivity of the exemplary compounds over Comparator C) | 0.49 nM | 7.6 | 53 | 1200 nM |
| O=C(NC12CC(C1)C2)O[C@@H]1CC[C@H](c2cc(Nc3ccnnc3C3CC3)n[nH]2)C1 [Example 11, (1R,3S)-3-(3-((3-cyclopropylpyridazin-4-yl)amino)-1H-pyrazol-5-yl)cyclopentyl bicyclo[1.1.1]pentan-1-ylcarbamate] | 2600 nM | >7.7 |  | 890 nM |  | 1100 nM | 12 nM | 74 | 92 | > 20000 nM |  |  |  |  |  |  |  |  |  |
| Cc1cnccc1Nc1cc([C@H]2CC[C@@H](OC(=O)NC34CC(C3)C4)C2)[nH]n1 [Example 9G, (1R,3S)-3-(3-((3-methylpyridin-4-yl)amino)-1H-pyrazol-5-yl)cyclopentyl bicyclo[1.1.1]pentan-1-ylcarbamate] | 340 nM | 44 |  | 770 nM |  | 1300 nM | 12 nM | 64 | 110 | 15000 nM |  |  |  |  |  |  |  |  |  |
